What follows are molecules tested on HIV-1 (HIVIIIB) replication in MT2 cell line (assay: HIV-1 replication in MT2 cell line with and without 30% human serum (viral RT activity in supernatant)). Conditions: Human immunodeficiency virus 1, MT2 cells, with 30% human serum, average IC50 if tested more than once, read-out: MT2 (HIVIIIB) with HS 30% IC50 range.
Assay type: cell-based
Outline: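 MT2 cells infected with HIV-1 IIIB at MOI 0.5 for 3 h, washed, seeded at 0.5×10^6/ml in RPMI/10% FBS with serially diluted compound, with or without 30% human serum; medium and compound refreshed on day 3. RT activity in supernatant at day 5; IC50 and IC90 derived.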

`CC(C)C1=C2C3CCC4[C@@]5(C)CC[C@H](OC(=O)CC(C)(C)C(=O)O)C(C)(C)C5CC[C@@]4(C)[C@]3(C)CC[C@@]2(NC(=O)N2CCC(NC(=O)OC(C)(C)C)CC2)CC1=O` (stereo partly drawn) [17-20, 3β-O-(3′,3′-Dimethylsuccinyl)-17β-[(4-tert-butoxycarbonylamino-piperidine-1-carbonyl)-amino]-21-oxolup-18-ene] and `CC(C)C1=C2C3CCC4[C@@]5(C)CC[C@H](OC(=O)CC(C)(C)C(=O)O)C(C)(C)C5CC[C@@]4(C)[C@]3(C)CC[C@@]2(NC(=O)N2CC[C@H](NC(=O)OC(C)(C)C)C2)CC1=O` (stereo partly drawn) [17-41, 3β-O-(3′,3′-Dimethylsuccinyl)-17β-[((S)-3-tert-butyloxycarbonylamino-pyrrolidine-1-carbonyl)-amino]-21-oxolup-18-ene] cannot be ordered by IC50: less than 199 nM for the first, less than 199 nM for the second.

`CC(C)C1=C2C3CCC4[C@@]5(C)CC[C@H](OC(=O)CC(C)(C)C(=O)O)C(C)(C)C5CC[C@@]4(C)[C@]3(C)CC[C@@]2(NC(=O)OCC2CCCN(C)C2)CC1=O` (stereo partly drawn) [20-19, 3β-O-(3′,3′-Dimethylsuccinyl)-17β-(1-methylpiperidine-3-methoxycarbonylamino)-21-oxolup-18-ene] and `CC(C)C1=C2C3CCC4[C@@]5(C)CC[C@H](OC(=O)CC(C)(C)C(=O)O)C(C)(C)C5CC[C@@]4(C)[C@]3(C)CC[C@@]2(NC(=O)OC2CCC2)CC1=O` (stereo partly drawn) [20-9, 3β-O-(3′,3′-Dimethylsuccinyl)-17β-cyclobutyloxycarbonylamino-21-oxolup-18-ene] cannot be ordered by IC50: less than 199 nM for the first, less than 199 nM for the second.

`CC(C)C1=C2[C@H]3CC[C@@H]4[C@@]5(C)CC[C@H](OC(=O)CC(C)(C)C(=O)O)C(C)(C)[C@@H]5CC[C@@]4(C)[C@]3(C)CC[C@@]2(NC(=O)[C@@H]2CCCCN2C)CC1=O` [19-65, 3β-O-(3′,3′-Dimethylsuccinyl)-17β-((S)-1-methylpiperidine-2-amido)-21-oxolup-18-ene] and `CC(=O)N[C@@]12CC[C@]3(C)[C@H](CC[C@@H]4[C@@]5(C)CC[C@H](OC(=O)CC(C)(C)C(=O)O)C(C)(C)[C@@H]5CC[C@]43C)C1=C(C(C)C)C(=O)C2` [19-1, 3β-O-(3′,3′-Dimethylsuccinyl)-17β-acetylamino-21-oxolup-18-ene] cannot be ordered by IC50: less than 199 nM for the first, less than 199 nM for the second.

`CC(C)C1=C2C3CCC4[C@@]5(C)CC[C@H](OC(=O)CC(C)(C)C(=O)O)C(C)(C)C5CC[C@@]4(C)[C@]3(C)CC[C@@]2(NC(=O)C(=O)N(C)C)CC1=O` (stereo partly drawn) [19-74, 3β-O-(3′,3′-Dimethylsuccinyl)-17β-(N′,N′-dimethyl-oxalamido)-21-oxolup-18-ene] and `CC(C)NC(=O)N[C@@]12CC[C@]3(C)C(CCC4[C@@]5(C)CC[C@H](OC(=O)CC(C)(C)C(=O)O)C(C)(C)C5CC[C@]43C)C1=C(C(C)C)C(=O)C2` (stereo partly drawn) [17-4, 3β-O-(3′,3′-Dimethylsuccinyl)-17β-[N′-(isopropyl)ureido]-21-oxolup-18-ene] cannot be ordered by IC50: less than 199 nM for the first, less than 199 nM for the second.

`CC(C)C1=C2C3CCC4[C@@]5(C)CC[C@H](OC(=O)CC(C)(C)C(=O)O)C(C)(C)C5CC[C@@]4(C)[C@]3(C)CC[C@@]2(NC(=O)NCc2cncnc2)CC1=O` (stereo partly drawn) [17-68, 3β-O-(3′,3′-Dimethylsuccinyl)-17β-[N′-(pyrimidin-5-ylmethyl)ureido]-21-oxolup-18-ene] and `CC(C)C1=C2C3CCC4[C@@]5(C)CC[C@H](OC(=O)CC(C)(C)C(=O)O)C(C)(C)C5CC[C@@]4(C)[C@]3(C)CC[C@@]2(NC(=O)NCc2ccccn2)CC1=O` (stereo partly drawn) [17-27, 3β-O-(3′,3′-Dimethylsuccinyl)-17β-[N′-(pyridin-2-ylmethyl)ureido]-21-oxolup-18-ene] cannot be ordered by IC50: less than 199 nM for the first, less than 199 nM for the second.

`CC(C)C1=C2C3CCC4[C@@]5(C)CC[C@H](OC(=O)CC(C)(C)C(=O)O)C(C)(C)C5CC[C@@]4(C)[C@]3(C)CC[C@@]2(NC(=O)N2CC[C@@H](N)C2)CC1=O` (stereo partly drawn) [17-42, 3β-O-(3′,3′-Dimethylsuccinyl)-17β-[((R)-3-amino-pyrrolidine-1-carbonyl)-amino]-21-oxolup-18-ene] and `CC(C)C1=C2C3CCC4[C@@]5(C)CC[C@H](OC(=O)CC(C)(C)C(=O)O)C(C)(C)C5CC[C@@]4(C)[C@]3(C)CC[C@@]2(NC(=O)NCC2CC2)CC1=O` (stereo partly drawn) [17-21, 3β-O-(3′,3′-Dimethylsuccinyl)-17β-(N′-cyclopropylmethyl-ureido)-21-oxolup-18-ene] fall in the same range of IC50: 200 to 999 nM for the first, 200 to 999 nM for the second.

`CC(C)C1=C2[C@H]3CC[C@@H]4[C@@]5(C)CC[C@H](OC(=O)CC(C)(C)C(=O)O)C(C)(C)[C@@H]5CC[C@@]4(C)[C@]3(C)CC[C@@]2(NC(=O)CN2CCN(C)CC2)CC1=O` [19-54, 3β-O-(3′,3′-Dimethylsuccinyl)-17β-(4-methylpiperazine-1-acetamido)-21-oxolup-18-ene] and `CC(=O)N1CCN(C(=O)N[C@@]23CC[C@]4(C)[C@H](CC[C@@H]5[C@@]6(C)CC[C@H](OC(=O)CC(C)(C)C(=O)O)C(C)(C)[C@@H]6CC[C@]54C)C2=C(C(C)C)C(=O)C3)CC1` [17-17, 3β-O-(3′,3′-Dimethylsuccinyl)-17β-[(4-acetyl-piperazine-1-carbonyl)-amino]-21-oxolup-18-ene] cannot be ordered by IC50: less than 199 nM for the first, less than 199 nM for the second.

`Cc1nnc(NC(=O)N[C@@]23CC[C@]4(C)C(CCC5[C@@]6(C)CC[C@H](OC(=O)CC(C)(C)C(=O)O)C(C)(C)C6CC[C@]54C)C2=C(C(C)C)C(=O)C3)s1` (stereo partly drawn) [17-45, 3β-O-(3′,3′-Dimethylsuccinyl)-17β-(N′-5-methyl-[1,3,4]thiadiazol-2-yl-ureido)-21-oxolup-18-ene] and `CC(C)C1=C2[C@H]3CC[C@@H]4[C@@]5(C)CC[C@H](OC(=O)CC(C)(C)C(=O)O)C(C)(C)[C@@H]5CC[C@@]4(C)[C@]3(C)CC[C@@]2(NC(=O)Nc2ccncc2)CC1=O` [17-26, 3β-O-(3′,3′-Dimethylsuccinyl)-17β-(N′-pyridin-4-yl-ureido)-21-oxolup-18-ene] cannot be ordered by IC50: less than 199 nM for the first, less than 199 nM for the second.

`CC(C)C1=C2C3CCC4[C@@]5(C)CC[C@H](OC(=O)CC(C)(C)C(=O)O)C(C)(C)C5CC[C@@]4(C)[C@]3(C)CC[C@@]2(NC(=O)N[C@@H](C)C(F)(F)F)CC1=O` (stereo partly drawn) [17-50, 3β-O-(3′,3′-Dimethylsuccinyl)-17β-[N′-((S)-2,2,2-trifluoro-1-methyl-ethyl)-ureido]-21-oxolup-18-ene] and `CC(C)OC(=O)N[C@@]12CC[C@]3(C)[C@H](CC[C@@H]4[C@@]5(C)CC[C@H](OC(=O)CC(C)(C)C(=O)O)C(C)(C)[C@@H]5CC[C@]43C)C1=C(C(C)C)C(=O)C2` [20-2] cannot be ordered by IC50: less than 199 nM for the first, less than 199 nM for the second.

`CC(C)C1=C2[C@H]3CC[C@@H]4[C@@]5(C)CC[C@H](OC(=O)CC(C)(C)C(=O)O)C(C)(C)[C@@H]5CC[C@@]4(C)[C@]3(C)CC[C@@]2(NC(=O)c2cnn(C)c2)CC1=O` [19-35, 3β-O-(3′,3′-Dimethylsuccinyl)-17β-(1-methyl-1H-pyrazole-4-amido)-21-oxolup-18-ene] and `Cc1ccccc1C(=O)N[C@@]12CC[C@]3(C)[C@H](CC[C@@H]4[C@@]5(C)CC[C@H](OC(=O)CC(C)(C)C(=O)O)C(C)(C)[C@@H]5CC[C@]43C)C1=C(C(C)C)C(=O)C2` [19-45, 3β-O-(3′,3′-Dimethylsuccinyl)-17β-(2-methylbenzamido)-21-oxolup-18-ene] cannot be ordered by IC50: less than 199 nM for the first, less than 199 nM for the second.

Same assay, conditions: Human immunodeficiency virus 1, MT2 cells, without human serum, average IC50 if tested more than once, read-out: MT2 (HIVIIIB) IC50 range

`CC(C)NC(=O)N[C@@]12CC[C@]3(C)C(CCC4[C@@]5(C)CC[C@H](OC(=O)CC(C)(C)C(=O)O)C(C)(C)C5CC[C@]43C)C1=C(C(C)C)C(=O)C2` (stereo partly drawn) [17-4, 3β-O-(3′,3′-Dimethylsuccinyl)-17β-[N′-(isopropyl)ureido]-21-oxolup-18-ene] and `CC(C)OC(=O)N[C@@]12CC[C@]3(C)[C@H](CC[C@@H]4[C@@]5(C)CC[C@H](OC(=O)CC(C)(C)C(=O)O)C(C)(C)[C@@H]5CC[C@]43C)C1=C(C(C)C)C(=O)C2` [20-2] cannot be ordered by IC50: less than 199 nM for the first, less than 199 nM for the second.

`CC(=O)N[C@@]12CC[C@]3(C)[C@H](CC[C@@H]4[C@@]5(C)CC[C@H](OC(=O)CC(C)(C)C(=O)O)C(C)(C)[C@@H]5CC[C@]43C)C1=C(C(C)C)C(=O)C2` [19-1, 3β-O-(3′,3′-Dimethylsuccinyl)-17β-acetylamino-21-oxolup-18-ene] and `CC(C)C1=C2[C@H]3CC[C@@H]4[C@@]5(C)CC[C@H](OC(=O)CC(C)(C)C(=O)O)C(C)(C)[C@@H]5CC[C@@]4(C)[C@]3(C)CC[C@@]2(NC(=O)c2cnn(C)c2)CC1=O` [19-35, 3β-O-(3′,3′-Dimethylsuccinyl)-17β-(1-methyl-1H-pyrazole-4-amido)-21-oxolup-18-ene] cannot be ordered by IC50: less than 199 nM for the first, less than 199 nM for the second.

Same assay, conditions: MT2 cells, with 30% human serum, average IC50 if tested more than once, read-out: MT2 (HIVIIIB) with HS 30% IC50 range

`CC(C)C1=C2C3CCC4[C@@]5(C)CC[C@H](OC(=O)CC(C)(C)C(=O)O)C(C)(C)C5CC[C@@]4(C)[C@]3(C)CC[C@@]2(NC(=O)C2CC3CCC(C2)O3)CC1=O` (stereo partly drawn) [19-71, 3β-O-(3′,3′-Dimethylsuccinyl)-17β-(8α-oxa-bicyclo[3.2.1]octane-3-amido)-21-oxolup-18-ene] was tested, and the IC50 was less than 199 nM.
